Measured values as given in ChEMBL document CHEMBL5665443, “Enzyme Inhibitor Single Concentration assay results for EUbOPEN Chemogenomics Library” (2024).

Key:
[1] = biological target: N-glycosylase/DNA lyase (Homo sapiens) (UniProt O15527); settings: Hit No;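 further: OGG1 cleavage of a quenched duplex DNA oligonucleotide, coupled to APE1 for strand incision, read as fluorescence at 594 nm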
Description: Inhibition of OGG1 by quantifying inhibition of OGG1-mediated cleavage and dissociation of quenched duplex DNA oligonucleotides, measured as fluorescence at 594 nm. To generate a functional strand incision and increase turn-over this assay is coupled to APE1.

[2] = biological target: Methyl-CpG-binding domain protein 4 (Homo sapiens) (UniProt O95243); settings: Hit No;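 further: MBD4 activity read as fluorescence at 594 nm from cleavage and release of a quenched duplex DNA oligonucleotide, with APE1 coupled to incise the strand and raise turnover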
Description: Inhibition of MBD4 by quantifying inhibition of MBD4-mediated cleavage and dissociation of quenched duplex DNA oligonucleotides, measured as fluorescence at 594 nm. To generate a functional strand incision and increase turn-over this assay is coupled to APE1.

[3] = biological target: Uracil-DNA glycosylase (Homo sapiens) (UniProt P13051); settings: Hit No;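 further: UNG excision on a quenched double-stranded DNA oligo probe, with APE1 added for strand incision and turnover, read as fluorescence at 594 nm as strands separate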
Description: Inhibition of UNG by quantifying inhibition of UNG-mediated cleavage and dissociation of quenched duplex DNA oligonucleotides, measured as fluorescence at 594 nm. To generate a functional strand incision and increase turn-over this assay is coupled to APE1.

[4] = biological target: Endonuclease 8-like 1 (Homo sapiens) (UniProt Q96FI4); settings: Hit No;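 further: fluorescence at 594 nm from quenched duplex DNA oligonucleotides released by NEIL1 cleavage and strand separation, reported as reduction of this enzyme activity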
Description: Inhibition of NEIL1 by quantifying inhibition of NEIL1-mediated cleavage and dissociation of quenched duplex DNA oligonucleotides, measured as fluorescence at 594 nm.

[5] = biological target: G/T mismatch-specific thymine DNA glycosylase (Homo sapiens) (UniProt Q13569); settings: Hit No;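 further: human TDG cleavage of quenched duplex DNA oligonucleotides coupled to APE1, strand release read as fluorescence at 594 nm, inhibition of TDG activity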
Description: Inhibition of TDG by quantifying inhibition of TDG-mediated cleavage and dissociation of quenched duplex DNA oligonucleotides, measured as fluorescence at 594 nm. To generate a functional strand incision and increase turn-over this assay is coupled to APE1.

[6] = biological target: T1, Adenine DNA glycosylase (Homo sapiens) (UniProt Q9UIF7); settings: Hit No;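 further: human MUTYH activity read as 594 nm fluorescence from cleavage and release of a quenched DNA duplex, coupled with APE1 for strand incision, lower signal meaning inhibition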
T1 sequence (whole entry): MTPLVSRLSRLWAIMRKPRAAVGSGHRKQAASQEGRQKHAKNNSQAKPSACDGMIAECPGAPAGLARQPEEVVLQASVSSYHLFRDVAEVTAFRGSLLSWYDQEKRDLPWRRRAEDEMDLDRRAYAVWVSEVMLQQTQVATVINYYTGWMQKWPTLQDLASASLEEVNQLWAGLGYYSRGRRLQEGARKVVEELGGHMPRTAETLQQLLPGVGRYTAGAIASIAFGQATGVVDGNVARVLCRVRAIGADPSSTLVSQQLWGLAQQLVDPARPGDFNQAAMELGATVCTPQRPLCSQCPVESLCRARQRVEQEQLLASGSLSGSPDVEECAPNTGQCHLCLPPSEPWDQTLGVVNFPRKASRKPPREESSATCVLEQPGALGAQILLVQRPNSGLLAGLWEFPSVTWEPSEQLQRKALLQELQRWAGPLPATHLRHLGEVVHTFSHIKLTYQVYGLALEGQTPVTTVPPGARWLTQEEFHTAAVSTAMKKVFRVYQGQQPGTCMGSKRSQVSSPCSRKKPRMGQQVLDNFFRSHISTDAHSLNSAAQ
Description: Inhibition of MUTYH by quantifying inhibition of MUTYH-mediated cleavage and dissociation of quenched duplex DNA oligonucleotides, measured as fluorescence at 594 nm. To generate a functional strand incision and increase turn-over this assay is coupled to APE1.

[7] = biological target: T2, Endonuclease 8-like 2 (Homo sapiens) (UniProt Q969S2); settings: Hit No;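 further: fluorescence at 594 nm reports NEIL2 cutting and release of a quenched double-stranded DNA oligo substrate, reduced signal read as inhibition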
T2 sequence (whole entry): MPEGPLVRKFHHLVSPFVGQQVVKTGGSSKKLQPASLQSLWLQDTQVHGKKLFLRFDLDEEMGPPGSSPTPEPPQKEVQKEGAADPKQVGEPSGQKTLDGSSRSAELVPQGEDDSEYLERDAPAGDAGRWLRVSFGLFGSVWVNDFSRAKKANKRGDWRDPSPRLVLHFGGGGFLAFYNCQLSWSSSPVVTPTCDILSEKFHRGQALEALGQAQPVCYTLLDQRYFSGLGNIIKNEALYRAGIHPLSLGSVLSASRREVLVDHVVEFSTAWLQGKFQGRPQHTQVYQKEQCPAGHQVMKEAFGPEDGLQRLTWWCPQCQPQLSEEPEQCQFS
Description: Inhibition of NEIL2 by quantifying inhibition of NEIL2-mediated cleavage and dissociation of quenched duplex DNA oligonucleotides, measured as fluorescence at 594 nm.

[8] = biological target: T3, Single-strand selective monofunctional uracil DNA glycosylase (Homo sapiens) (UniProt Q53HV7); settings: Hit No;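 further: enzymatic SMUG1 assay coupled with APE1, reading fluorescence at 594 nm released when a quenched double-stranded DNA oligonucleotide substrate is cleaved and separated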
T3 sequence (whole entry): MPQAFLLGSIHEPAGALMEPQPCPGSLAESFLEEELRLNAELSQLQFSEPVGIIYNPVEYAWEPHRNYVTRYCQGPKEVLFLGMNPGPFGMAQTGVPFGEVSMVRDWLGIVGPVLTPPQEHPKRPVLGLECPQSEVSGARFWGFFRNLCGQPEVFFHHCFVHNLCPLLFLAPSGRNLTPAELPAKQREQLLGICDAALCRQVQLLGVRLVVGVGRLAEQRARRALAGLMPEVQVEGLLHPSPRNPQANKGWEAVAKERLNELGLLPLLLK
Description: Inhibition of SMUG1 by quantifying inhibition of SMUG1-mediated cleavage and dissociation of quenched duplex DNA oligonucleotides, measured as fluorescence at 594 nm. To generate a functional strand incision and increase turn-over this assay is coupled to APE1.

[9] = biological target: T4, Endonuclease III-like protein 1 (Homo sapiens) (UniProt P78549);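 further: enzyme assay tracking NTHL1 cutting and release of a quenched double-stranded DNA oligo substrate, read as fluorescence at 594 nm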
T4 sequence (whole entry): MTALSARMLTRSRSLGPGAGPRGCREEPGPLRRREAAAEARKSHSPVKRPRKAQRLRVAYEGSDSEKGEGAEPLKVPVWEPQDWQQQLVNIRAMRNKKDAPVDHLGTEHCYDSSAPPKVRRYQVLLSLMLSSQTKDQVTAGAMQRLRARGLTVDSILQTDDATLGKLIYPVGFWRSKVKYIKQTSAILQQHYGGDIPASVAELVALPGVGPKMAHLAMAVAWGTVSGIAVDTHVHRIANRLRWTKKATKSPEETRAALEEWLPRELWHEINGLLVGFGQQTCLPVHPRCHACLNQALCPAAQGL
Description: Inhibition of NTHL1 by quantifying inhibition of NTHL1-mediated cleavage and dissociation of quenched duplex DNA oligonucleotides, measured as fluorescence at 594 nm.

[10] = Compound Concentration 10.0 uM, Hit No
[11] = Compound Concentration 1.0 uM, Hit No

G/T mismatch-specific thymine DNA glycosylase (Homo sapiens), sequence (Q13569 whole entry): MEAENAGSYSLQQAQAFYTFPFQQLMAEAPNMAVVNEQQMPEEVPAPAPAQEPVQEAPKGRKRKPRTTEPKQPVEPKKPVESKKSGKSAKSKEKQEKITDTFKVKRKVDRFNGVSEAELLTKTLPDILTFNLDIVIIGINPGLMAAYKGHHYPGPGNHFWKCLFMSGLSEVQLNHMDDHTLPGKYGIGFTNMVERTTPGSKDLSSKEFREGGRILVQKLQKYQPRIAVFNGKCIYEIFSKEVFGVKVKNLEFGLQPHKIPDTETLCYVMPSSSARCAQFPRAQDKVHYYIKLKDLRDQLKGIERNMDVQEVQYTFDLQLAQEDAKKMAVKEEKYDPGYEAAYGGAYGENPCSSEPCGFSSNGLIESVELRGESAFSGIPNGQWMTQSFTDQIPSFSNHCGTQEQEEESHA
Methyl-CpG-binding domain protein 4 (Homo sapiens), sequence (O95243 whole entry, the tested form may be a part): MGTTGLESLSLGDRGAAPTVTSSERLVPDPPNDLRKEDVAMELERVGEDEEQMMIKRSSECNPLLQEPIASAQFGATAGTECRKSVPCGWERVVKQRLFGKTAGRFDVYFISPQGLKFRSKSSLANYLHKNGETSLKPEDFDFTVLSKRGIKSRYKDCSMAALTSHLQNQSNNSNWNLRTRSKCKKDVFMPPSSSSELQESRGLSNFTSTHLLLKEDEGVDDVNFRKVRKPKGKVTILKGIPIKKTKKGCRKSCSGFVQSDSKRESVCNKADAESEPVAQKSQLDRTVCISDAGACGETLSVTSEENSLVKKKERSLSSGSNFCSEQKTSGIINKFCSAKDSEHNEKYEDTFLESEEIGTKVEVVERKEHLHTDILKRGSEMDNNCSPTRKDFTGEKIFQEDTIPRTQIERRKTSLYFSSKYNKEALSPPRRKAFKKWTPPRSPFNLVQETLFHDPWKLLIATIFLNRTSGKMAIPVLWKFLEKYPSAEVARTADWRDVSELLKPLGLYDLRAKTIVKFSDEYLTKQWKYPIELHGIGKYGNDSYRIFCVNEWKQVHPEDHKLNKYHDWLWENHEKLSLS
Uracil-DNA glycosylase (Homo sapiens), sequence (P13051 whole entry): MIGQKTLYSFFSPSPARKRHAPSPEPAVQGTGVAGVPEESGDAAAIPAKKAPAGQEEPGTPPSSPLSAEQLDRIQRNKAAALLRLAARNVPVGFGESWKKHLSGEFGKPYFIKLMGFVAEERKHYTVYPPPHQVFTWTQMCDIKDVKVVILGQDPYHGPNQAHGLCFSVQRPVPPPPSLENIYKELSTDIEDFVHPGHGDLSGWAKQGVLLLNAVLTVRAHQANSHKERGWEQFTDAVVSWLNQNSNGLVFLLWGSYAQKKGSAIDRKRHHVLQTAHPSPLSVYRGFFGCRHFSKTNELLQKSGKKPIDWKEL
N-glycosylase/DNA lyase (Homo sapiens), sequence (O15527 whole entry, the tested form may be a part): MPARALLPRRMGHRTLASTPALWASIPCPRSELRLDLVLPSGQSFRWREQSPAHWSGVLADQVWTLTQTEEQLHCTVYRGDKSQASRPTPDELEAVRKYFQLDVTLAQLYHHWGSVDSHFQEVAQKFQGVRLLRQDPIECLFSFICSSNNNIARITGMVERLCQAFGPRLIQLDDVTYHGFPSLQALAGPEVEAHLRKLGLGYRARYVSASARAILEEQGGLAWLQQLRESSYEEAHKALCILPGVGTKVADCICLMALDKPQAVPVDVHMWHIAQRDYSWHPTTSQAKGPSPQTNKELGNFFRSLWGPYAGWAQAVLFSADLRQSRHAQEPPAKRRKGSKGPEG
Endonuclease 8-like 1 (Homo sapiens), sequence (Q96FI4 whole entry): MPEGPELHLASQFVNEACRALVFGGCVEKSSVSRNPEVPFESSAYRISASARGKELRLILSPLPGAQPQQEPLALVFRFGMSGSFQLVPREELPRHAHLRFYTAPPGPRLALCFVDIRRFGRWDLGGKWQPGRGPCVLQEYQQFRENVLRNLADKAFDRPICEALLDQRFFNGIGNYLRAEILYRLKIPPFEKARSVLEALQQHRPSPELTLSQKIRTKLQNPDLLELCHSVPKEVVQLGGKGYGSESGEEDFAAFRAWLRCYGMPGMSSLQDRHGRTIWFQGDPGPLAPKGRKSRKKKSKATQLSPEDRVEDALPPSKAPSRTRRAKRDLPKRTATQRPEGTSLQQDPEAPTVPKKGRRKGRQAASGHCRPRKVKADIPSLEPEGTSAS

SMILES	inhibition ([1]; Compound Concentration 10.0 uM)	inhibition ([2]; Compound Concentration 10.0 uM)	inhibition ([3]; Compound Concentration 10.0 uM)	inhibition ([4]; Compound Concentration 10.0 uM)	inhibition ([5]; Compound Concentration 10.0 uM)	inhibition ([6]; Compound Concentration 10.0 uM)	inhibition ([7]; Compound Concentration 10.0 uM)	inhibition ([8]; Compound Concentration 10.0 uM)	inhibition [9, 10]	inhibition ([1]; Compound Concentration 1.0 uM)	inhibition ([2]; Compound Concentration 1.0 uM)	inhibition ([3]; Compound Concentration 1.0 uM)	inhibition ([4]; Compound Concentration 1.0 uM)	inhibition ([5]; Compound Concentration 1.0 uM)	inhibition ([6]; Compound Concentration 1.0 uM)	inhibition ([7]; Compound Concentration 1.0 uM)	inhibition ([8]; Compound Concentration 1.0 uM)	inhibition [9, 11]	inhibition ([9]; Compound Concentration 10.0 uM, Hit Yes)
CCOC(=O)C1Cc2ccccc2CN1C(=O)c1ccc(SC)s1 (centres undefined)	13.5%	59.4%	0.734%	-1.35%	98.9%	-2.13%	4.36%	19.5%	1.34%										
Cc1nc(C2CCN(C(=O)c3ccc(OC(F)(F)F)cc3N)CC2)c2ncc(N3CCN(C)CC3)cc2n1	7.7%	30.1%	7.52%	-5.75%	61.5%	9.15%	-4.68%	17.5%	-0.379%										
CN(C)C(=O)Cn1cc(-c2ccc(-c3cncc4ccccc34)cc2)cn1										-1.89%	30%	0.741%	-4.09%	40.2%	5.04%	-1.92%	16.6%	-6.19%	
CN(C)[C@@H]1CCN(c2cc(-c3ccccc3)nc3ccnn23)C1	7.46%	79.8%	7.63%	4.86%	46.8%	10.5%	22.2%	16.1%	-6.55%										
CO[C@H]1/C=C/O[C@@]2(C)Oc3c(C)c(O)c4c(O)c(c(/C=N/N5CCN(C)CC5)c(O)c4c3C2=O)NC(=O)/C(C)=C\C=C\[C@H](C)[C@H](O)[C@@H](C)[C@@H](O)[C@@H](C)[C@H](OC(C)=O)[C@@H]1C	23.7%	74.6%	20%	-4.08%	64%	34.5%	-0.744%	26.1%											27.6%
CN1CCN(C(=O)c2ccc3cc2OCCOCCNc2ccn4ncc-3c4n2)CC1	2.08%	17.6%	1.81%	1.85%	38.5%	-5.82%	-5.69%	13.6%	-5.49%										
C=C1/C(=C\C=C2/CCC[C@]3(C)[C@@H]([C@H](C)CCCC(C)(C)O)CC[C@@H]23)C[C@@H](O)C[C@@H]1O	10.5%	57%	-0.617%	-6.8%	75.3%	-4.04%	-1.25%	0.349%	-8.52%										
Oc1ccc2c3c1O[C@H]1c4[nH]c5c(c4C[C@@]4(O)[C@@H](C2)N(CC2CC2)CC[C@]314)C[C@@]1(O)[C@H]2Cc3ccc(O)c4c3[C@@]1(CCN2CC1CC1)[C@H]5O4	7.55%	-5.37%	1.76%	-5.39%	10.6%	-2.67%	-3.73%	-7.06%	5.59%										
CC[C@H](C)C(=O)O[C@H]1C[C@@H](C)C=C2C=C[C@H](C)[C@H](CC[C@@H]3C[C@@H](O)CC(=O)O3)[C@H]21	11.4%	71.5%	8.04%	-4.68%	49.6%	12.1%	4.61%	15.8%	5.94%										
CCN(CC)CCCCNc1ncc2cc(-c3cc(OC)cc(OC)c3)c(NC(=O)NC(C)(C)C)nc2n1										-1.83%	12%	4.12%	6.87%	36.3%	14.1%	3.2%	21.2%	-4.79%	
C=CC(=O)Nc1ccc2[nH]c(=O)n(C3CCN(Cc4ccc(-c5nc6cc[nH]c(=O)c6cc5-c5ccccc5)cc4)CC3)c2c1	49.4%	24%	4.17%	3.12%	49%	23.4%	4.67%	25.8%	2.5%										

The remaining lines, values ahead:

inhibition ([1]; Compound Concentration 10.0 uM)	inhibition ([2]; Compound Concentration 10.0 uM)	inhibition ([3]; Compound Concentration 10.0 uM)	inhibition ([4]; Compound Concentration 10.0 uM)	inhibition ([5]; Compound Concentration 10.0 uM)	inhibition ([6]; Compound Concentration 10.0 uM)	inhibition ([7]; Compound Concentration 10.0 uM)	inhibition ([8]; Compound Concentration 10.0 uM)	inhibition [9, 10]	inhibition ([1]; Compound Concentration 1.0 uM)	inhibition ([2]; Compound Concentration 1.0 uM)	inhibition ([3]; Compound Concentration 1.0 uM)	inhibition ([4]; Compound Concentration 1.0 uM)	inhibition ([5]; Compound Concentration 1.0 uM)	inhibition ([6]; Compound Concentration 1.0 uM)	inhibition ([7]; Compound Concentration 1.0 uM)	inhibition ([8]; Compound Concentration 1.0 uM)	inhibition [9, 11]	inhibition ([9]; Compound Concentration 10.0 uM, Hit Yes)	SMILES
-3.5%	0.374%	8.59%	-1.58%	62.4%	13.1%	-0.0337%	26.7%	4.27%											CC(C)NC(=O)N1CC[C@H](NC2=Nc3cc(F)ccc3N(CC(F)F)c3ccc(Cl)cc32)C1
31.5%	69.2%	5.08%	3.19%	54%	22%	-0.744%	12.3%	-1.95%											Cc1c(N2CCCC2)nc2ccc(Br)cc2c1C(=O)NC[C@H](CCC(=O)O)c1ccccc1Cl
67.8%	61.7%	4.52%	-9.38%	99.3%	11.9%	-1.76%	17.7%	10.6%											O=C(O)c1cc(F)c2nc(N3[C@@H]4CC[C@H]3C[C@@H](OCc3c(-c5ccccc5OC(F)(F)F)noc3C3CC3)C4)sc2c1
									1.04%	24%	-3.82%	-9.77%	51.7%	13.2%	15.6%	-0.754%	9.15%		COc1ncc(-c2ccc3nccc(-c4ccnnc4)c3c2)cc1NS(=O)(=O)c1ccc(F)cc1F
-0.266%	25%	-2.44%	5.13%	18.1%	19.2%	-3.23%	12.8%	10.7%											O=C(O)C1CN(Cc2ccc(OCc3ccc(Cl)c(Cl)c3)cc2)C1
-1.31%	23.6%	0.621%	6.13%	39.8%	2.33%	-1.57%	9.25%	-9.94%											CN(C(=O)c1cnn2cccnc12)c1cc2c(cc1N1CCOCC1)C(=O)N(C[C@@H](F)C(C)(C)O)C2
27.8%	58.8%	5.57%	-3.17%	100%	14.4%	-6.36%	16.9%	2.66%											CC1(C)CCC(C)(C)c2cc(C(=O)Nc3ccc(C(=O)O)cc3)ccc21
6.72%	54.8%	4.27%	6.68%	52.5%	-6.61%	8.44%	8.28%	-3.92%											CNC(=O)c1cc(C(=O)N[C@H]2[C@@H]3COC[C@@H]32)cc2c1O[C@@H](CF)[C@@H]2c1ccccc1
31%	67.8%	-1.09%	-3.62%	59.1%	-1.52%	6.65%	6.73%	-5.89%											COCCCS(=O)(=O)c1cc(C)c(-c2ccc(F)c3c2CC[C@H]3Oc2ccc3c(c2)OC[C@H]3CC(=O)O)c(C)c1
-1.34%	65.5%	-1.75%	-8.02%	97.9%	-4.04%	-9.67%	15.8%	4.63%											CCOC(=O)Nc1ccc2c(c1)N(C(=O)CN(CC)CC)c1ccccc1CC2
